“And” between values parts separate entries of the source, which are not always exact repeats. Identical values can stand only once. “Also recorded” adds a separate entry of the source. Marks after values point to notes of the source that are not given here.
Legend:
CREAE = CREAE studies of structured lipids (SCH in SJL mice, MOG in C57BL mice); type: in vivo, C57B1/6 and SJL mice; settings: for Severity of CREAE (in words): oral, Studies 2 to 7, 25-350 ul; for Shape of dose response: some of the studies; for Efficacy at low dose (FIG. 20): low dose (50 ul, Study 6)
EAE [1] = settings: guinea pig, in vivo; cited from earlier work
EAE [2] = settings: depending on dose; cited from earlier work
[3] = system: brain and spinal cord lesions of EAE; settings: GGG treated mice with histological scores 2 and 3
Text: Animals were culled on PSD 25. […] Variation in the severity of changes between individual mice is summarised using a semi-quantitative five point grading system.

[4] = system: MOG-induced CREAE in SJL Mice; experiment: MOG-induced CREAE in SJL mice, forms of GLA (Table 3); type: in vivo; settings: for Mean Clinical Score / No. with EAE: 100 μl of test lipid

CCCCC/C=C\C/C=C\C/C=C\C/C=C\CCCC(=O)OC(COC(=O)CCCCCCCCC)COC(=O)CCCCCCCCC [C-A-C, Glycerol 1,3-didecanoate 2-eicosatetra-(5-Z,8-Z,11-Z,14-Z)enoate]
Severity of CREAE (in words) (CREAE): capable of reducing severity of CREAE

CCCCC/C=C\C/C=C\CCCCCCCC(=O)O [linoleic acid]
Incidence and severity of EAE (EAE [1]): partially suppresses | Protection in acute rat EAE (EAE [2]): dose-dependent action on the clinical severity but did not abolish it

CCCCC/C=C\C/C=C\C/C=C\CCCCC(=O)OCC(COC(=O)CCCC/C=C\C/C=C\C/C=C\CCCCC)OC(=O)CCCC/C=C\C/C=C\C/C=C\CCCCC [G-G-G, glycerol tri-6,9,12-linolenate]
EAE severity score of the mice with histological changes [3]: 1 and 1.5 | Severity of CREAE (in words) (CREAE): capable of reducing severity of CREAE | Shape of dose response (CREAE): bell shaped response curve

CCCCC/C=C/C/C=C/C/C=C/CCCCC(=O)OCC(COC(=O)CCCC/C=C/C/C=C/C/C=C/CCCCC)OC(=O)CCCC/C=C/C/C=C/C/C=C/CCCCC [TG-GLA]
Mean Clinical Score [4]: 1.0 ± 1.3^c | No. with EAE [4]: 3/6 | Protective effect in CREAE (in words) ([4]; compared with borage oil): protective effects similar to that of the borage oil

CCCCC/C=C\C/C=C\C/C=C\C/C=C\CCCC(=O)OCC(COC(=O)CCC/C=C\C/C=C\C/C=C\C/C=C\CCCCC)OC(=O)CCC/C=C\C/C=C\C/C=C\C/C=C\CCCCC [A-A-A, Glycerol trieicosotetra5-Z,8-Z,11-Z,14Z-eneoate]
Severity of CREAE (in words) (CREAE): capable of reducing severity of CREAE

CCCCC/C=C\C/C=C\C/C=C\CCCCCCC(=O)OC(COC(=O)CCCCCCCCC)COC(=O)CCCCCCCCC [C-DHGLA-C, Glycerol 1,3-didecanoate2-eicosa-(8Z,11Z,14Z)-trienoate]
Efficacy at low dose (FIG. 20) (CREAE): low dose efficacy | Severity of CREAE (in words) (CREAE): capable of reducing severity of CREAE

CCCCC/C=C\C/C=C\C/C=C\CCCCC(=O)O [γ-linolenic acid]
Protection in acute rat EAE (EAE [2]): fully protective

CCCCC/C=C\C/C=C\C/C=C\CCCCC(=O)OCC [EE-GLA]
Mean Clinical Score [4]: 3.0 ± 0.8 | No. with EAE [4]: 5/6

CCCCC/C=C\C/C=C\C/C=C\CCCCC(=O)OCC(COC(=O)CCCC/C=C\C/C=C\C/C=C\CCCCC)OC(=O)CCCCCCCCC [G-C-G, Glycerol 1,3-dioctadeca-(6Z,9Z,12Z)-trienoate 2-decanoate, reference compound]
Severity of CREAE (in words) (CREAE): failed to treat the condition; also recorded: lack of efficacy

CCCCC/C=C\C/C=C\C/C=C\CCCCC(=O)OC(COC(=O)CCCCCCCCC)COC(=O)CCCCCCCCC [C-G-C, Glycerol 1,3-didecanoate 2-octadecatri(6-Z9-Z,12-Z)enoate]
Efficacy at low dose (FIG. 20) (CREAE): low dose efficacy | Severity of CREAE (in words) (CREAE): capable of reducing severity of CREAE | Shape of dose response (CREAE): bell shaped response curve

Reference: patent US7964641B2, “Treatment of neurodegenerative conditions” (BTG International Limited, priority 2003, dated 2011)
